Reference: patent US9938281B2 (Merck Sharp & Dohme Corp., priority 2012, dated 2018)

What was measured:
[1] = target: T1, PI3K-delta (Homo sapiens, UniProt O00329); assay: HTRF PI3K biochemical assay, delta isoform; conditions: form screened (neutral or TFA salt) given, read-out: PI3Kdelta IC50
T1 construct: purchased Upstate; Millipore 14-604

[2] = target: T2, PI3K-alpha (Homo sapiens, UniProt P42336); assay: HTRF PI3K biochemical assay, alpha isoform; conditions: ratio PI3K-alpha IC50 value / PI3K-delta IC50 value
T2 construct: purchased Upstate; Millipore 14-602
T2 sequence (P42336 whole entry, canonical isoform): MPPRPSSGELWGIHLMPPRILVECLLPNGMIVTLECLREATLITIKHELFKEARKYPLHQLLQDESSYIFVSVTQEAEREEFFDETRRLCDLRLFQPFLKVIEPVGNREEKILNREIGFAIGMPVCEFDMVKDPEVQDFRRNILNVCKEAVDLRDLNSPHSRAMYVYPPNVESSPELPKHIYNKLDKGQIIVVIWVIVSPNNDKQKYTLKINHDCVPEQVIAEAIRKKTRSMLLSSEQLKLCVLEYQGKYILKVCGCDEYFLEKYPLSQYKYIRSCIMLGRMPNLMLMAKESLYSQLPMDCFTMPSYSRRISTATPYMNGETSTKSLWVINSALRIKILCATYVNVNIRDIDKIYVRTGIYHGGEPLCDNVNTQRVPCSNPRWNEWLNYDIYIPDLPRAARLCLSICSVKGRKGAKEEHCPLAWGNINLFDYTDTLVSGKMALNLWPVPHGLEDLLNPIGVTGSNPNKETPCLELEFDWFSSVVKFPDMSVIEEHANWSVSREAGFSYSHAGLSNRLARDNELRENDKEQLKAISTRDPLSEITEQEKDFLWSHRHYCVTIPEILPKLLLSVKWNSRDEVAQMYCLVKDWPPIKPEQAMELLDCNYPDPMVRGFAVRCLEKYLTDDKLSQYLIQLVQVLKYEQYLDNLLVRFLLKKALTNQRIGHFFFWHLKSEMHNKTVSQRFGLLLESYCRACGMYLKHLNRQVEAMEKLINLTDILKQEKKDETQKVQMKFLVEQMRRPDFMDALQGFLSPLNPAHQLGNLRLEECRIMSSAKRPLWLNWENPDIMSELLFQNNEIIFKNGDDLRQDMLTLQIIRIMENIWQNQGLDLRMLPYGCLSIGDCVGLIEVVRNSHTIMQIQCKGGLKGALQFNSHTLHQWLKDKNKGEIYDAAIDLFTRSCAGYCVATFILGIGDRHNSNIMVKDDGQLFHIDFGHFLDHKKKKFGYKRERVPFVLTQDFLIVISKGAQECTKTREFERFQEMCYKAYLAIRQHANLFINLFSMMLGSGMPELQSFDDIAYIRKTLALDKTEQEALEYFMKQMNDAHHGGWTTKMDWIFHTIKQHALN
T2 sequence (P27986 whole entry partner, canonical isoform): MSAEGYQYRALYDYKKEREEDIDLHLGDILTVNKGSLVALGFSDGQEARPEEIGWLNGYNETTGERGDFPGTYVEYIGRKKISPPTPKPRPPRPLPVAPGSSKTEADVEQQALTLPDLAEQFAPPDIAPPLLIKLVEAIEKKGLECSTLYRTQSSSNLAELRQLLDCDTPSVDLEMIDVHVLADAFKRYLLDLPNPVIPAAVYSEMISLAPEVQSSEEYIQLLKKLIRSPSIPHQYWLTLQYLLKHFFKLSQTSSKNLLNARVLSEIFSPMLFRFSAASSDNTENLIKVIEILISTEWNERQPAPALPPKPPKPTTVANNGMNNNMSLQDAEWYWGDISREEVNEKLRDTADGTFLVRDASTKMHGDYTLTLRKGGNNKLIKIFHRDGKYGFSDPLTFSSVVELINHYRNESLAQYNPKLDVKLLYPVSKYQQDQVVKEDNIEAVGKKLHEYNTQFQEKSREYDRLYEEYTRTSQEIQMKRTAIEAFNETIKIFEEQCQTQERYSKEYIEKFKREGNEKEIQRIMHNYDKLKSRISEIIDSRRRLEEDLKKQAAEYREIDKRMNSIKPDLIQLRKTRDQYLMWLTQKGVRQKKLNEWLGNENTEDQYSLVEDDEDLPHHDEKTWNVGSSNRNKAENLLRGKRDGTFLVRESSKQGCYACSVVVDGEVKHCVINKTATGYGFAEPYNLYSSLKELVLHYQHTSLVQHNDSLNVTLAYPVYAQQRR

T1 sequence (O00329 whole entry, canonical isoform): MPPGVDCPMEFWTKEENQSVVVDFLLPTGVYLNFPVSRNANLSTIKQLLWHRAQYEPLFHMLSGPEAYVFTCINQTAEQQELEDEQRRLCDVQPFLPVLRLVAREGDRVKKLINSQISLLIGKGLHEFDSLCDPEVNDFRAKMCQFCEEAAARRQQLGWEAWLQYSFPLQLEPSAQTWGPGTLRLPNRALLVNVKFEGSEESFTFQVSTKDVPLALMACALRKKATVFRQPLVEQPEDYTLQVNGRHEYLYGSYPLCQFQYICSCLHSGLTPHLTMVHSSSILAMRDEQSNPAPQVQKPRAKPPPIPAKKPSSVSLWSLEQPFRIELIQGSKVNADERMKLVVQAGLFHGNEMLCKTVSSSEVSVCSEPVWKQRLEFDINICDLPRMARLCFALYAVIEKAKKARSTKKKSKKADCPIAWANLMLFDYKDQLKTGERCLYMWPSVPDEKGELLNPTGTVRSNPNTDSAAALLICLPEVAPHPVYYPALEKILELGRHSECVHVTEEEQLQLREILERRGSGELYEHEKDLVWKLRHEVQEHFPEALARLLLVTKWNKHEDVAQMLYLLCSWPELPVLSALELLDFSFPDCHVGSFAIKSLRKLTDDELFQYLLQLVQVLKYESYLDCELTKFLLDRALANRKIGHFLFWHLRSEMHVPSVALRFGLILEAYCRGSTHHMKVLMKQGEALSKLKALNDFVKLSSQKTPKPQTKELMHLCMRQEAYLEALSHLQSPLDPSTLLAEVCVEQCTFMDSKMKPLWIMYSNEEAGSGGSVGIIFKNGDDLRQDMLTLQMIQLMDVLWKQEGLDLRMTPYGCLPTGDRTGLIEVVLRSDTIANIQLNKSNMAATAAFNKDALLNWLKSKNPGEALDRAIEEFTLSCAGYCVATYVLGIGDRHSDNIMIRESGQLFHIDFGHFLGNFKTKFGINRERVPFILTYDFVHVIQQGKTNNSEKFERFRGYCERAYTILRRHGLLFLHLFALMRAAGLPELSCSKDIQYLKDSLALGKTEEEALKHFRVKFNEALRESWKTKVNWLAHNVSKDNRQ
T1 sequence (P27986 whole entry partner, canonical isoform): as the sequence (P27986 whole entry partner, canonical isoform) above

IC50 [1] [nM]	Selectivity versus PI3Kalpha [2]	SMILES
5.1	>10	CCn1c(C(=O)NCC(F)(F)F)nc2c(N[C@H]3CCN(C(=O)N4CC(OC)C4)C3)ncnc21 [Compound 12-27, 9-ethyl-6-({(3S)-1-[(3-methoxyazetidin-1-yl)carbonyl]pyrrolidin-3-yl}amino)-N-(2,2,2-trifluoroethyl)-9H-purine-8-carboxamide]
21	>10	CCn1c(-c2cnc(C)nc2)nc2c(N[C@H]3CCN(C(=O)OCC(F)(F)F)C3)ncnc21 [Compound 13-1, 2,2,2-trifluoroethyl (3S)-3-{[9-ethyl-8-(2-methylpyrimidin-5-yl)-9H-purin-6-yl]amino}pyrrolidine-1-carboxylate]
9.2	>10	CCn1c(-c2cnc(C)nc2)nc2c(N[C@H]3CCN(C(=O)OC)C3)ncnc21 [Compound 13-2, methyl (3S)-3-{[9-ethyl-8-(2-methylpyrimidin-5-yl)-9H-purin-6-yl]amino}pyrrolidine-l-carboxylate]
8.7	>10	CCn1c(-c2cnc(C)nc2)nc2c(N[C@H]3CCN(C(=O)OCCF)C3)ncnc21 [Compound 13-3, 2-fluoroethyl (3S)-3-{[9-ethyl-8-(2-methylpyrimidin-5-yl)-9H-purin-6-yl]amino}pyrrolidine-1-carboxylate]
8.2	>10	CCn1c(-c2cnc(C)nc2)nc2c(N[C@H]3CCN(C(=O)OCC(C)(C)C)C3)ncnc21 [Compound 13-4, 2,2-dimethylpropyl (3S)-3-{[9-ethyl-8-(2-methylpyrimidin-5-yl)-9H-purin-6-yl]amino}pyrrolidine-1-carboxylate]
6.2	>10	CCn1c(-c2cnc(C)nc2)nc2c(N[C@H]3CCN(C(=O)OC(C)C)C3)ncnc21 [Compound 13-5, 1-methylethyl (3S)-3-{[9-ethyl-8-(2-methylpyrimidin-5-yl)-9H-purin-6-yl]amino}pyrrolidine-1-carboxylate]
4.1	>10	CCn1c(-c2cnc(C)nc2)nc2c(N[C@H]3CCN(C(=O)OCCOC)C3)ncnc21 [Compound 13-7, 2-methoxyethyl (3S)-3-{[9-ethyl-8-(2-methylpyrimidin-5-yl)-9H-purin-6-yl]amino}pyrrolidine-1-carboxylate]
3.9	>10	CCn1c(-c2cnc(C)nc2)nc2c(N[C@H]3CCN(C(=O)OC4CCCCC4)C3)ncnc21 [Compound 13-8, cyclohexyl (3S)-3-{[9-ethyl-8-(2-methylpyrimidin-5-yl)-9H-purin-6-yl]amino}pyrrolidine-l-carboxylate]
2	>10	CCn1c(-c2cnc(C)nc2)nc2c(N[C@H]3CCN(C(=O)OCc4ccccc4)C3)ncnc21 [Compound 13-10, benzyl (3S)-3-{[9-ethyl-8-(2-methylpyrimidin-5-yl)-9H-purin-6-yl]amino}pyrrolidine-1-carboxylate]
4.3	>10	CCn1c(-c2cnc(C)nc2)nc2c(N[C@H]3CCN(C(=O)OCCCN(C)C)C3)ncnc21 [Compound 13-11, 3-(dimethylamino)propyl (3S)-3-{[9-ethyl-8-(2-methylpyrimidin-5-yl)-9H-purin-6-yl]amino}pyrrolidine-1-carboxylate]
2.5	>10	CCn1c(-c2cnc(C)nc2)nc2c(N[C@H]3C[C@H](C(=O)O)N(C(=O)C4CC4)C3)ncnc21 [Compound 15-1, (4S)-1-(cyclopropylcarbonyl)-4-{[9-ethyl-8-(2-methylpyrimidin-5-yl)-9H-purin-6-yl]amino}-D-proline]
14	>10	CCn1c(-c2cnc(C)nc2)nc2c(N[C@H]3C[C@H](C(=O)N(C)C)N(C(=O)C4CC4)C3)ncnc21 [Compound 15-2, (4S)-1-(cyclopropylcarbonyl)-4-{[9-ethyl-8-(2-methylpyrimidin-5-yl)-9H-purin-6-yl]amino}-N,N-dimethyl-D-prolinamide]
